# Reference: ChEMBL document CHEMBL1201862, “PubChem BioAssay data set” (2004)
# Activity calls are given as the source filed them.
# What was measured:
# [1] = growth suppression of beta-catenin-knockout colon cells, dose response, cell-based, HCT116, human colon tumor (AID 1045); assay type: functional;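 further: HCT116 colon tumor cells with beta catenin knocked out; cells exposed to compound for 60 hours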
# [2] = growth suppression of PTEN-null colon cells, dose response, cell-based, HCT116 PTEN knockout (AID 1047); assay type: functional;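 further: HCT116 colon tumor cells with PTEN knocked out; cells exposed to compound for 60 hours before readout; potency for loss of cell viability measured by luminescence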
# [3] = system: BJ; experiment: cytotoxicity toward BJ-TERT fibroblasts, dose response, cell-based, RAS-independent, luminescence (AID 1933); assay type: functional; conditions: Homo sapiens
# [4] = cytotoxicity toward DRD oncogenic fibroblasts, dose response, cell-based, non-viral oncogenic, luminescence (AID 1934); assay type: functional; conditions: Homo sapiens
# [5] = system: BJ; experiment: cytotoxicity toward BJ-TERT-LT-ST fibroblasts, dose response, cell-based, RAS-independent, luminescence (AID 1935); assay type: functional; conditions: Homo sapiens;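 further: BJ fibroblasts immortalized with TERT plus LT and ST oncogenes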
# [6] = system: BJ; experiment: cells; assay type: functional, cell-based; conditions: Homo sapiens
# [7] = target: Luciferin 4-monooxygenase (Photinus pyralis, UniProt P08659); experiment: firefly luciferase enzyme inhibitors, dose response, biochemical, luminescence (AID 1891)
# Sequence of Luciferin 4-monooxygenase (P08659 whole entry): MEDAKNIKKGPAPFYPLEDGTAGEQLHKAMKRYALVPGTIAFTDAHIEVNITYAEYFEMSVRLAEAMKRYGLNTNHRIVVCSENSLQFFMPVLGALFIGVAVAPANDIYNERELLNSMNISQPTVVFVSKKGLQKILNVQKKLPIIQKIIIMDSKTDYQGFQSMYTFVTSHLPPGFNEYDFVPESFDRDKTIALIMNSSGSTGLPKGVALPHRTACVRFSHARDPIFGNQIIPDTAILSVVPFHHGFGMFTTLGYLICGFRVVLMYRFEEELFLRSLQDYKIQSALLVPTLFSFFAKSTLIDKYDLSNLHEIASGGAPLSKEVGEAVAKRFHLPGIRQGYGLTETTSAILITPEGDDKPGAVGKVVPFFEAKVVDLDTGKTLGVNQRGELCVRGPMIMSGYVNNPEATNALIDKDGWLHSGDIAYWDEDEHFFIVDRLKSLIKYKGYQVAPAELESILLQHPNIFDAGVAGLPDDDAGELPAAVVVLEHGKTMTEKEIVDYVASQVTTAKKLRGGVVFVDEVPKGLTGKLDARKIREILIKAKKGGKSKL
# [8] = Luminescence Cell-Based Dose Confirmation HTS to Identify Inhibitors of Platelet Dense Granule Release. [Related pubchem assays: 1663 (Primary HTS), 1678 (Summary of Project)]; assay type: functional
# [9] = target: Nonstructural protein 1 (Influenza A virus, UniProt Q194T2); assay type: functional, Influenza A virus (A/California/07/2009(H1N1))
# Sequence of Nonstructural protein 1 (Q194T2 whole entry): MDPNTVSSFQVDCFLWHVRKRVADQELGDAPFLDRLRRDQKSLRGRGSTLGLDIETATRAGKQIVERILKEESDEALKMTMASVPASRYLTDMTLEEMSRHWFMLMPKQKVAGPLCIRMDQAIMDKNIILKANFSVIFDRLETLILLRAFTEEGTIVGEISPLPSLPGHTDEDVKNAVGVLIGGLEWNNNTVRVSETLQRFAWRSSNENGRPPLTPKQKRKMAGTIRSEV
# [10] = target: T1, Protein RecA (Mycobacterium tuberculosis, UniProt P9WHJ3); experiment: Fluorescence Cell-Free Homogeneous Dose Retest to Identify Inhibitors of RecA-Intein Splicing Activity. [Related pubchem assays (depositor defined):AID2097, AID2223, AID489010, AID492950]; assay type: functional
# T1 sequence (P9WHJ3 whole entry): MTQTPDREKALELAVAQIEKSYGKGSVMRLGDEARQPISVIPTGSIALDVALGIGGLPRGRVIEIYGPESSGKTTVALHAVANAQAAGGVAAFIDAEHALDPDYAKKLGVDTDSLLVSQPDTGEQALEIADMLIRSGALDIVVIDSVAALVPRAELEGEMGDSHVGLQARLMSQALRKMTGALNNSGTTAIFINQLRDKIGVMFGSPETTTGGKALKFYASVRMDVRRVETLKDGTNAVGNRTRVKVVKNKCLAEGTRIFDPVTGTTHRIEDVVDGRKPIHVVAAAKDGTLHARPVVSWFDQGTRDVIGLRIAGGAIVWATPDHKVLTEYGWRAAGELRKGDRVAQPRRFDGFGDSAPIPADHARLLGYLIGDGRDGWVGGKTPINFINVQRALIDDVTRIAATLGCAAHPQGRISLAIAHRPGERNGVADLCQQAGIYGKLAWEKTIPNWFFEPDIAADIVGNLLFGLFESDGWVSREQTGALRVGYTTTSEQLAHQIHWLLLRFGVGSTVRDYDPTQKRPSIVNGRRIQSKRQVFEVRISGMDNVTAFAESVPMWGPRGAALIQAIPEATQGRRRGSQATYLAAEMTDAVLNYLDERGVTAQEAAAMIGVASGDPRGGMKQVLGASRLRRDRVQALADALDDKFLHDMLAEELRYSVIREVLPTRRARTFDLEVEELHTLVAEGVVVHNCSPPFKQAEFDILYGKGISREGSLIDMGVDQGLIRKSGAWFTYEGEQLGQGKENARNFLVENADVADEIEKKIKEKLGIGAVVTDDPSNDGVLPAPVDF
# [11] = target: T2, Replicative DNA helicase DnaB (Mycobacterium tuberculosis, UniProt P9WMR3); experiment: DnaB intein splicing inhibitors, dose response, biochemical, cell-free fluorescence (AID 449749); assay type: functional
# T2 sequence (P9WMR3 whole entry): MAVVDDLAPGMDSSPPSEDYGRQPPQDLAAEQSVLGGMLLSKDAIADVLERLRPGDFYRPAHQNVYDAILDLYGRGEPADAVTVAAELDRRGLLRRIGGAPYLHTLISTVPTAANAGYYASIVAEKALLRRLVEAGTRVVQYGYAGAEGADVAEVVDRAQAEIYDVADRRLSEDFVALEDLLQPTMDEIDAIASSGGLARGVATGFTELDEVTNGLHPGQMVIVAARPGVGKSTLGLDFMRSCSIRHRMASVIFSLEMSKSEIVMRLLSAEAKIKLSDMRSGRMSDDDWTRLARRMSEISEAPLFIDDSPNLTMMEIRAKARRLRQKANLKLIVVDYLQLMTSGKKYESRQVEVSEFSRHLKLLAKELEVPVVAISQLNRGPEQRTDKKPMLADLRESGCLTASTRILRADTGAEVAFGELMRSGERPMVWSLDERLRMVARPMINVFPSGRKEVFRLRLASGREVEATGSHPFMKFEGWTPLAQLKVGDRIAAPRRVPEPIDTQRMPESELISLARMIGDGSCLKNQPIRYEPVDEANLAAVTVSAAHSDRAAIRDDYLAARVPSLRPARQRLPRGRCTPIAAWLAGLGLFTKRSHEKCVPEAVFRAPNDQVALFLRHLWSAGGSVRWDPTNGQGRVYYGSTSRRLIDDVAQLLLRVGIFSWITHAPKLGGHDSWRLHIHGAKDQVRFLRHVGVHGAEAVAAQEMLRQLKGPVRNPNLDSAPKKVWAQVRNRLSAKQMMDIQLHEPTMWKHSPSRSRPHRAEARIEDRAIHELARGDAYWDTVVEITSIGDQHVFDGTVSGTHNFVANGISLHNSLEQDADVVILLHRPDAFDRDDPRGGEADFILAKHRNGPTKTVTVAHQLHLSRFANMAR
# [12] = NIH-3T3 fibroblast cytotoxicity, dose response, cytotoxicity control, cell-based, fluorescence, Alamar Blue, secondary assay (AID 2327); assay type: functional;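 further: NIH-3T3 mouse fibroblasts cultured with fluconazole at 8 µg/mL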
# [13] = target: T3, Aminopeptidase N (Plasmodium falciparum FcB1/Columbia, UniProt O96935); experiment: P. falciparum M1AAP inhibitors, biochemical, fluorogenic H-Leu-NHMec substrate, 1536-well (AID 1445); parameters: species or system Plasmodium falciparum 3D7, 3D7
# T3 sequence (O96935 whole entry): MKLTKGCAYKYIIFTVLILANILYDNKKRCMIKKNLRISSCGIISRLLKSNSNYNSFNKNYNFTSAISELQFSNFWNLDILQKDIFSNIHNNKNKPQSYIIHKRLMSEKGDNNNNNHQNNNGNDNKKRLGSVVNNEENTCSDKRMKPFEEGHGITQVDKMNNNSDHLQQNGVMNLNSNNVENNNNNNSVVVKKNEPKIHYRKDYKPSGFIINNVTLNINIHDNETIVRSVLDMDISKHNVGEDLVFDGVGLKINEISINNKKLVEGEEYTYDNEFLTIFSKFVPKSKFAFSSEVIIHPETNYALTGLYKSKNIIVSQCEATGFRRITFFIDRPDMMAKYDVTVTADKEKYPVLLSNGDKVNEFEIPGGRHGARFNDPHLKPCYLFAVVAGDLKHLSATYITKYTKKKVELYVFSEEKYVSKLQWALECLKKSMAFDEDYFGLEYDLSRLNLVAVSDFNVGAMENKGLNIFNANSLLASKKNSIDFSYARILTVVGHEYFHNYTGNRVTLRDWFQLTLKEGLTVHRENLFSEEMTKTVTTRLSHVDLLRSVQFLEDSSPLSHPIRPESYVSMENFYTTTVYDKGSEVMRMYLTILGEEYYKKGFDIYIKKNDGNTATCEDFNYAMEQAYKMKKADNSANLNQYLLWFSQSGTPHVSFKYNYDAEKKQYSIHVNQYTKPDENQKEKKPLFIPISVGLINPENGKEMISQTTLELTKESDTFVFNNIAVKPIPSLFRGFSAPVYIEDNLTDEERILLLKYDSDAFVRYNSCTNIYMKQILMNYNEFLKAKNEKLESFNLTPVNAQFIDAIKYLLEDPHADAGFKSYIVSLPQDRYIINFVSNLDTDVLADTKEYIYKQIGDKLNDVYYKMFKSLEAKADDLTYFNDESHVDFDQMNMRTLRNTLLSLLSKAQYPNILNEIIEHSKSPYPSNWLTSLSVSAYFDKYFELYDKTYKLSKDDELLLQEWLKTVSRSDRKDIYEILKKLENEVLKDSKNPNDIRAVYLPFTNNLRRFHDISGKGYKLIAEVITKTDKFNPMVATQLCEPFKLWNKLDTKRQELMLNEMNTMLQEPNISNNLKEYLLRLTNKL
# [14] = system: Vero; experiment: cells; assay type: functional; conditions: Chlorocebus sabaeus
# [15] = Shn3 3'UTR reporter inhibitors, dose response, cell-based, Clone20 osteoblasts, firefly luciferase, cherry-picked (AID 624132); assay type: functional;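 further: firefly luciferase luminescence from reporter carrying the Shn3 3'UTR in osteoblasts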
# [16] = inhibitors of HIV Env-driven cell fusion, dose response, cherry-pick (AID 652057); assay type: functional, cell-based
# [17] = P. falciparum Dd2 growth inhibitors, dose response, SYBR Green, cherry-picked samples (AID 1159567); assay type: functional, cell-based
smiles,measurement,setting,value
CC1CCCCN1S(=O)(=O)c1ccc(C(=O)Nc2ccccc2-c2nc3ccccc3[nH]2)cc1 (stereo unspecified),EC50,[1],25.5 µM (active)
same,EC50,[2],17 µM (active)
CCCc1nnc(NC(=O)CCC(=O)N2CCN(Cc3ccc(OC)c(F)c3)CC2)s1,EC50,[3],25.9 µM (active)
same,EC50,[4],> 150 µM (not active)
same,EC50,[5],> 150 µM (not active)
same,EC50,[6],> 150 µM (inconclusive)
Cc1ccc2nc(NC(=O)CN3C(=O)NC4(CCCC4)C3=O)sc2c1,EC50,[7],80 µM (active)
same,EC50,[8],> 112 µM (not active)
Cc1cc(N(C)N)nc(NC(=O)NS(=O)(=O)c2ccccc2Cl)n1,IC50,[9],5.96 µM (active)
COc1cc(/C=C2\C(=O)N(c3ccc(NC(C)=O)cc3)N=C2c2ccccc2)ccc1O,EC50,[10],> 380 µM (inconclusive)
same,AC50,[11],> 380 µM (inactive)
CC(=O)Nc1cccc(NC(=O)C2CCCN2C(=O)Nc2ccc(Cl)cc2)c1 (stereo unspecified),EC50,[12],> 160 µM (inactive)
same,IC50,[13],84.1 µM (active)
CC1(C)Cc2c(sc3nc(-c4cccs4)n(N)c(=O)c23)CO1,EC50,[1],23.9 µM (active)
same,EC50,[2],16.7 µM (active)
O=C(/C=C/c1ccc(Cl)cc1Cl)c1cccnc1,EC50,[1],5.09 µM (active)
same,CC50,[14],> 25 µM (active)
same,EC50,[2],7.26 µM (active)
CC(C)(C)C(=O)Nc1cc(S(=O)(=O)N2CCCCC2)ccc1N1CCCCC1,AC50,[15],23.1 µM (active)
CC(=O)N1N=C(c2c(-c3ccccc3)c3cc(Br)ccc3[nH]c2=O)CC1c1ccco1 (stereo unspecified),IC50,[13],58.8 µM (active)
CCOc1ccccc1N1CC(C(=O)Nc2nccs2)CC1=O (stereo unspecified),EC50,[7],> 112 µM (not active)
same,EC50,[8],> 112 µM (not active)
COc1ccc(C(=O)Nc2ccccc2C(=O)N(Cc2ccco2)C(C(N)=O)C(C)C)cc1 (stereo unspecified),EC50,[1],9.3 µM (active)
same,EC50,[2],6.76 µM (active)
CCC(C)(C)NC(=O)CN(Cc1ccc2c(c1)OCO2)C(=O)CCC(=O)Nc1ccccn1,IC50,[13],67 µM (active)
O=C(Nc1ccc(-c2nc3ccccc3o2)cc1)C1CCCO1 (stereo unspecified),EC50,[7],2.6 µM (active)
same,EC50,[8],2.58 µM (active)
O=C(CNCc1ccccn1)Nc1ccc([N+](=O)[O-])cc1C(=O)Nc1ccccc1F,IC50,[9],5.49 µM (active)
COc1cc(C(c2sc3nc(C)nn3c2O)N2CCOCC2)cc(OC)c1OC (stereo unspecified),EC50,[7],> 112 µM (not active)
same,EC50,[8],18.6 µM (active)
COc1ccccc1C(=O)N1CCN(c2cccc(Cl)c2)CC1,EC50,[3],1.79 µM (active)
same,EC50,[4],1.37 µM (active)
same,EC50,[5],0.833 µM (inconclusive)
same,EC50,[6],38.6 µM (inconclusive)
COc1cc(/C=C/C(=O)c2cccc([N+](=O)[O-])c2)cc(OC)c1OC,EC50,[1],2.7 µM (active)
same,EC50,[2],3.46 µM (active)
COc1cc(OC)c(-c2nnc3n(CCc4ccccc4)c(=O)c4ccccc4n23)cc1OC,EC50,[7],> 112 µM (not active)
same,EC50,[8],> 112 µM (not active)
CCCOc1ccc(/C=N/Nc2ccccc2[N+](=O)[O-])c(O)c1,EC50,[3],11.3 µM (active)
same,EC50,[4],10.1 µM (active)
same,EC50,[5],> 150 µM (inconclusive)
same,EC50,[6],12.2 µM (active)
C[C@H](CO)N1C[C@H](C)[C@H](CN(C)S(=O)(=O)c2ccc(C#N)cc2)Oc2ncc(/C=C/c3ccccc3)cc2C1=O,AC50,[16],7.61 µM (active)
C/C(CC(=O)Nc1cc(C)ccn1)=N\NC(=O)c1cccc(C)c1,EC50,[10],4.04 µM (active)
same,AC50,[11],9.58 µM (active)
COc1ccc2c3c([nH]c2c1)[C@H](CO)N(Cc1ccccc1Cl)CC31CN(C(C)=O)C1,AC50,[17],5.9 µM (active)
CCCc1cn([C@H]2C[C@@H]3O[C@@H](CO)CC[C@@H]3O[C@@H]2CCc2ccc(-c3ccc(OC)cc3)cc2)nn1,AC50,[17],6.63 µM (active)
COc1cccc(-c2ccc3c(c2)[C@H]2[C@H](CCN2C(=O)C2CCCCC2)[C@@H](CO)N3)c1,AC50,[17],4.95 µM (active)
COc1ccc2c3c([nH]c2c1)[C@@H](CO)N(Cc1ccc(Cl)cc1)CC31CCN(Cc2nccs2)CC1,AC50,[17],4.65 µM (active)
O=C1Nc2ccccc2Nc2ncccc21,EC50,[7],> 112 µM (not active)
same,EC50,[8],> 112 µM (not active)
